Test results from US11427604B2 (Mindset Pharma Inc., priority 2020, dated 2022).
Where “and” joins values, the source holds several entries; their conditions need not be identical. Identical values can stand only once. Like-named read-outs stand apart in the source and are kept apart here.

Legend:
[1] = test system: C57BL/6J mice; experiment: Mouse head twitch response (HTR); assay type: in vivo; settings: for Head Twitch 50 mins, AVG / Head Twitch 60 mins, AVG / Head Twitch Total, AVG / Head Twitch 10 mins, AVG / Head Twitch 20 mins, AVG / Head Twitch 30 mins, AVG / Head Twitch 40 mins, AVG: group mean; for Head Twitch Total, AVG: over 1 h
Protocol: Data is expressed as mean±SEM. The induction of head twitches elicited by 5-HT2A receptor agonists is believed to represent a behavioural proxy of their psychedelic effects.
The effect of different doses of exemplary compounds of Formula I were evaluated on head-twitch response (HTR) as a behavior-based model of psychedelic activity.
Male, C57BL/6J mice (body weight range 20-30 g) were dosed with the appropriate dose of test article, and following a 1-minute pre-treatment time, placed in individual observation chambers. Animals were visually assessed for the incidence head twitches continuously over a 1 hr period. Head twitches were defined as a rapid jerk of the head which was not elicited by an external tactile stimulus (Corne and Pickering, Psychopharmacologia, 1967, 11(1): 65-78). Each head twitch was individually counted by a trained observer, and the data expressed as the mean+SEM of 6-10 mice per group. Mice were used in a single experiment only.

[2] = In vivo pharmacokinetics in male Sprague-Dawley rats; parameters: species or system rat; settings: for AUC(0-t): read-out: AUC0-tlast; for MRT inf: read-out: MRT0-inf; for half-life: read-out: Apparent t1/2 (converted)
Protocol: Male C57BL/6 mice (25-30 g) and male Sprague-Dawley rats (250-325 g) from Charles River Labs were acclimatized for a minimum of 5 days prior to dosing. Body weights were recorded on the day of dosing.
Animals dosed p.o. were deprived of food overnight and fed ˜2 h following dosing.
Formulations were administered intravenously (i.v.) via the tail vein or orally (p.o.) by gavage with disposable feeding needles.
Serial blood samples were collected via tail snip. Terminal blood samples were collected under isoflurane anesthesia by cardiac puncture.
All blood samples were transferred into K2EDTA tubes on wet ice and centrifuged within 5 min (3200×g for 5 min at 4° C.) to obtain plasma. Plasma was stored at −80° C. until analysis.
Mouse or rat plasma, as applicable.
AB Sciex QTRAP 4000 or 6500 MS/MS system equipped with an LC system with a binary pump, a solvent degasser, a thermostated column compartment and a multiplate autosampler. i. Analysis software: Phoenix® WinNonlin® 8.2 (Pharsight, Certara, Mountainview, Calif.) ii. Analysis methods: non-compartmental analysis, linear up/log down trapezoidal rule iii. PK parameters: C0, t1/2, AUC0-tlast, AUC0-∞, CL, VSS, MRT, tmax(po), Cmax(po), F, as appropriate

[3] = p.o. 3.0 mg/kg per title (dose row prints 10)
[4] = rat, plasma, iv, i.v. 0.3 mg/kg
[5] = rat, plasma, po, p.o. 3.0 mg/kg per title (dose row prints 10)
[6] = rat, plasma, sc, s.c. 0.3 mg/kg

In the case of `[2H]C([2H])([2H])N(C([2H])([2H])[2H])C([2H])([2H])C([2H])([2H])c1c[nH]c2cccc(O)c12` [Compound I-45, 3-(2-(bis(methyl-d3)amino)ethyl-1,1,2,2-d4)-1H-indol-4-ol], the “Head Twitch 50 mins, AVG” value ([1]; 1 mg/kg SC) is reported as 0.0, the “Head Twitch 60 mins, AVG” value ([1]; 1 mg/kg SC) is reported as 0.0 and the “Head Twitch Total, AVG” value ([1]; 1 mg/kg SC) is reported as 6.8. For the same compound, the “Head Twitch 10 mins, individual animal” value ([1]; 3 mg/kg SC, animals S1-S6) was 1 (2×) and 3 and 2 and 6 and 0, the “Head Twitch 20 mins, individual animal” value ([1]; 3 mg/kg SC, animals S1-S6) was 2 (2×) and 1 and 0 and 3 and 5 and the “Head Twitch 30 mins, individual animal” value ([1]; 3 mg/kg SC, animals S1-S6) was 2 (2×) and 1 (3×) and 0. The “Head Twitch 40 mins, individual animal” value ([1]; 3 mg/kg SC, animals S1-S6) was 2 and 0 (4×) and 3, the “Head Twitch 50 mins, individual animal” value ([1]; 3 mg/kg SC, animals S1-S6) was 1 (2×) and 0 (4×) and the “Head Twitch 60 mins, individual animal” value ([1]; 3 mg/kg SC, animals S1-S6) was 0 (5×) and 1. For the same compound, the “Head Twitch Total, individual animal” value ([1]; 3 mg/kg SC, animals S1-S6, over 1 h) was 8 and 5 and 3 and 4 and 14 and 7, the “Head Twitch 10 mins, AVG” value ([1]; 3 mg/kg SC) was 2.2 and the “Head Twitch 20 mins, AVG” value ([1]; 3 mg/kg SC) was 2.2. The “Head Twitch 30 mins, AVG” value ([1]; 3 mg/kg SC) was 1.2, the “Head Twitch 40 mins, AVG” value ([1]; 3 mg/kg SC) was 0.8 and the “Head Twitch 50 mins, AVG” value ([1]; 3 mg/kg SC) was 0.3. The “Head Twitch 60 mins, AVG” value ([1]; 3 mg/kg SC) was 0.2, the “Head Twitch Total, AVG” value ([1]; 3 mg/kg SC) was 6.8 and the “Head Twitch 10 mins, individual animal” value ([1]; 10 mg/kg SC, animals T1-T6) was 3 and 1 (2×) and 0 (3×). The “Head Twitch 20 mins, individual animal” value ([1]; 10 mg/kg SC, animals T1-T6) was 1 (2×) and 0 (4×), the “Head Twitch 30 mins, individual animal” value ([1]; 10 mg/kg SC, animals T1-T6) was 0 and the “Head Twitch 40 mins, individual animal” value ([1]; 10 mg/kg SC, animals T1-T6) was 0 (4×) and 1 (2×). The “Head Twitch 50 mins, individual animal” value ([1]; 10 mg/kg SC, animals T1-T6) was 0, the “Head Twitch 60 mins, individual animal” value ([1]; 10 mg/kg SC, animals T1-T6) was 0 (5×) and 3 and the “Head Twitch Total, individual animal” value ([1]; 10 mg/kg SC, animals T1-T6, over 1 h) was 4 and 2 and 5 and 0 (2×) and 1. For the same compound, the “Head Twitch 10 mins, AVG” value ([1]; 10 mg/kg SC) was 0.8, the “Head Twitch 20 mins, AVG” value ([1]; 10 mg/kg SC) was 0.3 and the “Head Twitch 30 mins, AVG” value ([1]; 10 mg/kg SC) was 0.0. The “Head Twitch 40 mins, AVG” value ([1]; 10 mg/kg SC) was 0.3, the “Head Twitch 50 mins, AVG” value ([1]; 10 mg/kg SC) was 0.0 and the “Head Twitch 60 mins, AVG” value ([1]; 10 mg/kg SC) was 0.5. For the same compound, the “Head Twitch Total, AVG” value ([1]; 10 mg/kg SC) was 2.0, the “head twitch frequency compared to vehicle control” value ([1]; 0.3-10 mg/kg SC, measured over 1 h) was “dose dependent increase” and the AUC0-inf/Dose ([2]; i.v. 0.3 mg/kg) was 181 ± 30.8 kg·ng·h/mL/mg. The AUC(0-inf) ([2]; i.v. 0.3 mg/kg) was 117 ± 11.5 ng·h/mL, the “Apparent t1/2” value ([2]; i.v. 0.3 mg/kg) was 34.6 ± 3.17 h and the AUC0-inf/Dose [2, 3] was 181 ± 14.6 kg·ng·h/mL/mg. It also gave a Cmax/Dose [2, 3] of 79.2 ± 24.4 kg·ng/mL/mg, a clearance [2, 4] of 143 mL/min/kg and an AUC(0-t) [2, 4] of 35.2 ± 3.45 ng·h/mL. It also gave an MRT inf [2, 4] of 89.4 ± 32.2 min, a Cmax [2, 5] of 238 ± 73.3 ng/mL and a Tmax [2, 5] of 20 ± 8.64 min. For the same compound, the bioavailability [2, 5] was 155 ± 12.4%, the AUC(0-inf) ([2]; rat, plasma, po, p.o. 3.0 mg/kg per title (dose row prints 10), read-out: AUC0-inf) was 543 ± 43.7 ng·h/mL and the AUC(0-t) [2, 5] was 534 ± 38.7 ng·h/mL. For the same compound, the half-life [2, 5] was 157 ± 47.7 min, the MRT inf [2, 5] was 166 ± 29.2 min and the Cmax [2, 6] was 30.2 ± 12.2 ng/mL. The Tmax [2, 6] was 16.7 ± 12.6 min, the bioavailability [2, 6] was 125 ± 30.4% and the AUC(0-inf) ([2]; rat, plasma, sc, s.c. 0.3 mg/kg, read-out: AUC0-inf) was 35.9 ± 8.71 ng·h/mL. The AUC(0-t) [2, 6] was 32 ± 9.2 ng·h/mL, the half-life [2, 6] was 38.8 ± 12.7 min and the MRT inf [2, 6] was 59.5 ± 13.7 min. The AUC0-inf/Dose ([2]; s.c. 0.3 mg/kg) was 120 ± 29.0 kg·ng·h/mL/mg and the Cmax/Dose ([2]; s.c. 0.3 mg/kg) was 101 ± 40.7 kg·ng/mL/mg.
